Experimental data reported in patent US6846777B2, “Synergistic biocidal composition” (Thor GmbH, priority 2000, dated 2005).
Values joined by “and” are separate entries in the source; they are usually repeats but may differ in a detail not shown here. Identical values can stand only once. Like-named read-outs stand apart in the source and are kept apart here.

Columns and labels:
Assay in all cases: MIC values / microbial growth in Sabouraud maltose broth and synergistic index (Kull)
Type in all cases: cell-based
[1] = test system: Penicillium funiculosum DSM 12637; conditions: employed alone, incubation 96 hours at 25° C.; for MIC: Talaromyces funiculosus, DSM12637
Description: (§1) In addition to the biocide component and water, the aqueous mixtures also comprised a nutrient medium, viz. a Sabouraud maltose broth (commercial product, Merck No. 10393). The cell density was 10^6 cells/ml. The incubation time was 96 hours at 25° C. Each sample was incubated in a shaker-incubator at 120 rpm.
(§2) The synergistic index calculated by the method of F. C. Kull et al., Applied Microbiology, vol. 9 (1961), p. 538. Here, the synergistic index is calculated using the following formula: Synergistic index SI=Qa/QA+Qb/QB.
(§3) If the synergistic index has a value of above 1, this means that antagonism is present. If the synergistic index assumes a value of 1, this means that an additive effect of the two biocides exists. If the synergistic index assumes a value of less than 1, this means that synergism of the two biocides exists.
Again, the experimental batches contained a Sabouraud maltose broth as the nutrient medium. The cell density was 10^6 cells/ml. The incubation time was 96 hours at 25° C. Each sample was incubated in a shaker-incubator at 120 rpm.

[2] = test system: Aspergillus niger DSM 1957; conditions: for MIC: Aspergillus niger, DSM1957; for Synergistic index Qa/QA + Qb/QB: single active ingredient alone
Description: as §1, §2, §3
(§4) Again, the experimental batches contained a Sabouraud maltose broth as the nutrient medium. The cell density was 10^6 cells/ml. The incubation time was 72 hours at 25° C. Each sample was incubated in a shaker-incubator at 120 rpm.

[3] = test system: Penicillium funiculosum IMI 211742; conditions: employed alone, incubation 72 hours at 25° C.; for MIC: Talaromyces funiculosus, IMI211742
Description: as §1, §2, §3, §4

CCCCCCCCn1sc(Cl)c(Cl)c1=O [DCOIT, 4,5-dichloro-2-n-octyl-4-isothiazolin-3-one]
MIC [1]: 2 µg/mL
MIC ([2]; DCOIT alone (100.0 % by weight), 72 h/25° C., read-out: MIC at DCOIT concentration Qb): 0.75 µg/mL
MIC ([2]; employed alone, incubation 72 hours at 25° C., read-out: MIC value): 0.75 µg/mL
Synergistic index Qa/QA + Qb/QB ([2]; 72 h/25° C.): 1.00
MIC [3]: 1 µg/mL

CCCCNC(=O)OCC#CI [IPBC, 3-iodo-2-propynyl N-butylcarbamate]
MIC [1]: 2 µg/mL
MIC [3]: 0.75 µg/mL

CCCCCCCCn1sccc1=O [OIT, 2-n-octylisothiazolin-3-one]
MIC value [1]: 0.5 ppm

zinc pyrithione [ZnPy]
MIC value [1]: 2 ppm
MIC at ZnPy concentration Qa ([2]; ZnPy alone (100.0 % by weight), 72 h/25° C.): 17.5 ppm
MIC value ([2]; employed alone, incubation 72 hours at 25° C.): 17.5 ppm
Synergistic index Qa/QA + Qb/QB ([2]; 72 h/25° C.): 1.00
MIC value [3]: 1 ppm and 0.75 ppm
